In patent US20090292124A1, “Therapeutic Agent for Nausea and/or Vomiting” (TORAY INDUSTRIES, INC. a corporation of Japan, priority 2005, published 2009):
Marks after values point to notes of the source that are not given here.

How the values were obtained:
Format in all cases: in vivo
[1] = Test of brain penetration (Reference Example 1, intravenous); conditions: rat, Jcl-SD male rats, non-fasting, 0.5 mg/kg intravenously, brain and plasma 15 minutes after administration, n=2
Method: Jcl-SD male rats of 7 weeks of age
The test compound in an amount of 1.0 mg was dissolved in 0.8 mL of N,N-dimethylacetamide, and 0.8 mL of propylene glycol was added thereto.
(§1) The test compound was intravenously administered to non-fasting rats (0.5 mg/0.8 mL/kg, n=2) through the tail vein, and total blood was collected from the lower aorta 15 minutes after the administration. An aliquot of the blood was centrifuged (3000 rpm, 10 minutes, 4° C.), and the concentration of unchanged compound in the obtained blood plasma was measured by LC/MS/MS method.
(§2) After the above-described collection of the total blood, the brain was enucleated from each rat, and homogenized to prepare a 25% homogenate, followed by measurement of the concentration of unchanged compound by LC/MS/MS method.
From the obtained concentrations, Kp values were determined. As a result, the Kp value of NIT was 1.30.

[2] = Test of brain penetration (Test Example 2, oral); conditions: rat, Crj:CD(SD)IGS male rats, non-fasting, 30 mg/kg orally, brain and plasma 2 hours after administration, n=3
Method: Crj:CD(SD)IGS male rats of 7-8 weeks of age
Each of the test compounds in an amount of 90 mg was suspended in 0.5% methylcellulose 1500 cp to a total volume of 6 mL.
as §1, with “Each” for “The”, “orally” for “intravenously”, “(30 mg/2” for “(0.5 mg/0.8”, “n=3),” for “n=2) through the tail vein,”, “2 hours” for “15 minutes”
as §2
From the obtained concentrations, Kp values were determined.

ferrets = assay: Influence on nausea and vomiting induced by morphine; conditions: test substance 5 mg/kg 30 min before morphine 0.6 mg/kg s.c.; for Appearance Frequency / Duration / Latent Time: mean ± standard error; for Latent Time: no symptom counted as 30 min; for Number of Individuals Presenting Symptoms (Number of Individuals Presenting Symptoms/Number of Cases): observed 30 min
Method: About 30 minutes after feeding, ferrets were transferred to observation cages, and the test substances were administered, respectively. Each test substance was dissolved in 5% xylitol, and administered at a dose of 5 mg/kg. Thirty minutes after administration of the test solution, 0.6 mg/kg of morphine was subcutaneously administered at a volume of 1 mL/kg, and the symptoms of vomiting were visually observed until 30 minutes after the administration of morphine.
The appearance frequency, latent time (the time from the administration of morphine to the first appearance of the symptom) and duration (the time from the first vomiting to the final vomiting) of nausea (rhythmical contractile motion of abdomen), of vomiting (vomiting behavior excreting vomit or analogous behavior thereof) and of the total of nausea and vomiting were counted, respectively.

| SMILES | Kp at 0.25 h [1] | Kp at 2 h [2] | Appearance Frequency (ferrets; Nausea + Vomiting) | Duration (ferrets; Nausea + Vomiting) | Latent Time (ferrets; Nausea + Vomiting) | Number of Individuals Presenting Symptoms (Number of Individuals Presenting Symptoms/Number of Cases) (ferrets; Nausea + Vomiting) | Appearance Frequency (ferrets; Nausea) | Duration (ferrets; Nausea) | Latent Time (ferrets; Nausea) | Number of Individuals Presenting Symptoms (Number of Individuals Presenting Symptoms/Number of Cases) (ferrets; Nausea) | Appearance Frequency (ferrets; Vomiting) | Duration (ferrets; Vomiting) | Latent Time (ferrets; Vomiting) | Number of Individuals Presenting Symptoms (Number of Individuals Presenting Symptoms/Number of Cases) (ferrets; Vomiting) |
| --- | --- | --- | --- | --- | --- | --- | --- | --- | --- | --- | --- | --- | --- | --- |
| Oc1ccc2c3c1O[C@H]1c4[nH]c5ccccc5c4C[C@@]4(O)[C@@H](C2)N(CC2CC2)CC[C@]314 [NIT, naltrindole] | 1.3 |  |  |  |  |  |  |  |  |  |  |  |  |  |
| CCOC(=O)c1ccc2c3c([nH]c2c1)[C@@H]1Oc2c(O)ccc4c2[C@@]12CCN(CC1CC1)[C@H](C4)[C@]2(O)C3 [Compound 2] |  | 0.18 | 0 ± 0 | 0 ± 0 min | 30 ± 0 min | 0/6## | 0 ± 0 | 0 ± 0 min | 30 ± 0 min | 0/6## | 0 ± 0 | 0 ± 0 min | 30 ± 0 min | 0/6 |
| Cn1c2c(c3ccccc31)C[C@@]1(O)[C@H]3Cc4ccc(O)c5c4[C@@]1(CCN3CC1CC1)[C@H]2O5 [Compound 1] |  |  | 0 ± 0 | 0 ± 0 min | 30 ± 0 min | 0/6## | 0 ± 0 | 0 ± 0 min | 30 ± 0 min | 0/6## | 0 ± 0 | 0 ± 0 min | 30 ± 0 min | 0/6 |
| Cc1ccc(/C=C2\C[C@@]3(O)[C@H]4Cc5ccc(O)c6c5[C@@]3(CCN4CC3CC3)[C@@H](O6)C2=O)cc1 [Compound 3] |  | 0.46 | 0 ± 0 | 0 ± 0 min | 30 ± 0 min | 0/6## | 0 ± 0 | 0 ± 0 min | 30 ± 0 min | 0/6## | 0 ± 0 | 0 ± 0 min | 30 ± 0 min | 0/6 |
